# Assay results reported in patent publication US9126933B2, “Soft PDE4 inhibitors” (Amakem NV, priority 2011, dated 2015).
# Assay: in vitro
# Settings: PAMPA, pH 7.4
# Protocol: The capacity of compounds of the invention to cross a lipophilic membrane was evaluated in a Pampa assay, using an assay plate containing structured layers of phospholipids supported on a PVDF filter (Benton Dickinson). […] Each compound was tested in triplicate and was prepared as a 10 μM solution in 10 mM PBS pH=7.4 buffer containing 2% DMSO. Compounds were dosed in the donor chamber of the assay plate and incubated for 5 hours, at room temperature. Additionally, an equilibrium solution plate containing 6 μM of test compound was prepared. Test compound concentration in donor and acceptor chamber and in the equilibrium plate was quantified using HPLC-MS/MS. The subsequently calculated permeability coefficients were reported as Papp.
smiles,measurement,value
COC(=O)[C@H]1[C@H]2C[C@@H]3c4[nH]c5cc(OC)ccc5c4CCN3C[C@H]2C[C@@H](OC(=O)c2cc(OC)c(OC)c(OC)c2)[C@@H]1OC [Reserpine],"Papp at 5 h, 10 μM",0.008 ×10⁻⁶ cm/s
